The source of these data is patent US20040023314A1, “Mutant fibronectin and tumor metastasis” (Baylor College of Medicine, priority 2002, published 2004).

This test has as its system 1143 mel tumor cells. Put plainly: Migration assay (matrigel). It is filed as cell-based, human. The settings on record: 1143 mel cells stably expressing the construct, 48 h. The method, then:
2.5×10^4 1143 mel tumor cells and transfected tumor cells were seeded into the upper chamber with 0.75 ml of RPMI-1640 serum-free medium in BIOCOAT […] Cells (Becton Dickinson, San Jose, Calif.). The bottom chamber contained 0.75 ml of RPMI-1640 serum-free medium (control medium) or 0.75 ml of RPMI-1640/10% FCS (complete medium). After incubation at 37° C. and 5% CO2 for 48 h, Cells in the lower chambers were fixed in 4% formaldehyde in PBS at room temperature for 20 min, stained with crystal violet, and examined and counted from four different fields under a compound microscope.
The migratory ability of these cell lines expressing wild type or mutant FN was further evaluated. […] To rule out clonal variation, similar experiments were repeated with four sets of independent tumor cell clones expressing either wild-type, mutant FN or empty vector. […] The P-value for significant difference is 0.0007 among the two comparison groups of cell clones expressing mutant FN and other cell clones expressing either wild-type FN, empty vector. There were no statistically significant differences among groups of parental 1143 mel and its derivative clones expressing wild-type or empty vector.

With “mutant FN: mutated fibronectin with Glu to Lys substitution at position 2053”, the “migration from chamber with control medium to chamber with complete medium” value is reported as “enhanced migration ability”.

Consider wild-type FN: wild-type fibronectin, for which the “migration from chamber with control medium to chamber with complete medium” value was “little or no migration”.
